Measurements: PMC10936776, “Structural and functional characterization of AfsR, an SARP family transcriptional activator of antibiotic biosynthesis in Streptomyces” (PLOS Biology, 2024)

Columns and labels:
[1] = target: T1, phosphorylated AfsR (phos-AfsR) (Streptomyces coelicolor, UniProt P25941); test: in vitro MangoIII transcription assay after preincubation; assay type: biochemical; conditions: 500 nM phosphorylated AfsR, 1 mM ATPγS preincubation; activator
T1 construct: full-length, 993 residues, pET28a (His-tagged), E. coli BL21(DE3); dephosphorylated, then phosphorylated in vitro by AfsKΔC (pS22, pT337, pS391, pT506, pS953 by MS), SEC
T1 sequence (P25941 whole entry): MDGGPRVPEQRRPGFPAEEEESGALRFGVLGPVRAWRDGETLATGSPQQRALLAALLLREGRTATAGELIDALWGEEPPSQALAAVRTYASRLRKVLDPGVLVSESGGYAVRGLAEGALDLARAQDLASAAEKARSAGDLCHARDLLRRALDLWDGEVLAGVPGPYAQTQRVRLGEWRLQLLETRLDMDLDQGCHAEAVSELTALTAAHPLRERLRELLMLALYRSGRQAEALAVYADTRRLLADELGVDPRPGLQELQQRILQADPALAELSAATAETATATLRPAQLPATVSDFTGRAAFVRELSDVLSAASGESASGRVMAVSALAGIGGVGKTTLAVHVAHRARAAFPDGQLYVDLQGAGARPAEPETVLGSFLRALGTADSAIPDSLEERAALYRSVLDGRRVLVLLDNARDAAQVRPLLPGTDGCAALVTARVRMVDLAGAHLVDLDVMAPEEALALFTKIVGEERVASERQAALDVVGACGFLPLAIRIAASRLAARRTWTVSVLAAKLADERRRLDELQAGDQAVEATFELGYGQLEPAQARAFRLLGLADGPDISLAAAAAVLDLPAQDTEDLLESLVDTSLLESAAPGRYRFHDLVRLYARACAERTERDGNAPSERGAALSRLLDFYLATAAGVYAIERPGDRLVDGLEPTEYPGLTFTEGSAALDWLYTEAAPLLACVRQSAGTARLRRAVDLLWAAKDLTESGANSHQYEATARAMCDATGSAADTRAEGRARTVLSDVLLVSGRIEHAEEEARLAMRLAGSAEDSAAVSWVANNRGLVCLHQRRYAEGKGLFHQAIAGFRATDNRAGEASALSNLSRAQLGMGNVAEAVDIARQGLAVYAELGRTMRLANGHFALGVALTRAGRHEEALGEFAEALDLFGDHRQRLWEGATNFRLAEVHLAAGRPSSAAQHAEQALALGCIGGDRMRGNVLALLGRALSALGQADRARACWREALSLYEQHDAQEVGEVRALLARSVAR

[2] = target: T2, AfsR (dephosphorylated AfsR) (Streptomyces coelicolor, UniProt P25941); test: as above; assay type: biochemical; conditions: 500 nM dephosphorylated AfsR, 1 mM ATPγS preincubation 10 min 30 °C, RNAP-σHrdB, RbpA, CarD; activator
T2 construct: full-length, 993 residues, pET28a (His-tagged), E. coli BL21(DE3), Ni-NTA and SEC; wild type treated with lambda phosphatase (E. coli protein carries pT337); mainly monomer
T2 sequence (P25941 whole entry): as above

Nc1ncnc2c1ncn2[C@@H]1O[C@H](COP(=O)(O)OP(=O)(O)OP(O)(O)=S)[C@@H](O)[C@H]1O [ATPγS]
transcription activation [1]: exhibits partial activation in response to non-hydrolysable ATPγS
transcription activation [2]: comparable effect of preincubation with a non-hydrolyzable ATP analogue, ATPγS
